Source: publication PMC9151520 (Archives of Toxicology, 2022)
“And” between values parts separate entries of the source, which are not always exact repeats. Equal values may be shown once. Where a name gives a salt, the structure may show the parent alone. Read-outs that look alike come from different tables or passages of the source.

Key:
[1] = system: p53 signaling (p53RE-bla HCT-116 cells); assay: cells; format: cell-based; conditions: Homo sapiens; for EC50: HCT-116, 0.5 h
[2] = system: p53 signaling (p53RE-bla HCT-116 cells); assay: cells; format: cell-based
[3] = system: p53 signaling (p53RE-bla HCT-116 cells); assay: cells; format: cell-based
[4] = system: p53RE-bla HCT-116 cells
[5] = system: p53 signaling (p53RE-bla HCT-116 cells); assay: cells; conditions: Homo sapiens
[6] = system: p53 signaling (p53RE-bla HCT-116 cells)
[7] = system: p53 signaling (p53RE-bla HCT-116 cells); assay: cells; conditions: Homo sapiens; for Emax: HCT-116, read-out: p53 activation efficacy
[8] = system: p53 signaling (p53RE-bla HCT-116 cells); conditions: for EC50: read-out: p53 activation EC50
[9] = HCT-116, read-out: p53 activation EC50, HLM
[10] = HCT-116, read-out: p53 activation EC50

COP(=S)(OC)Oc1nc(Cl)c(Cl)cc1Cl [Chlorpyrifos-methyl]
EC50 [1]: 1.78 µM | p53 activation EC50, cherry pick confirmation [2]: inactive | p53 activation EC50, primary screening [2]: inactive | p53 activation efficacy, cherry pick confirmation [2]: inactive | p53 activation efficacy, primary screening [2]: inactive | EC50 ([3]; Homo sapiens, HCT-116): 24 µM | Viability EC50, cherry pick confirmation [4]: inactive | Viability EC50, primary screening [4]: inactive | Viability efficacy, cherry pick confirmation [4]: inactive | Viability efficacy, primary screening [4]: inactive | EC50 ([5]; HCT-116): 15.5 µM | Emax ([5]; HCT-116, read-out: efficacy): 45% | EC50 ([5]; HCT-116, read-out: p53 activation EC50, cherry pick confirmation): 21.6 µM | EC50 ([5]; HCT-116, read-out: p53 activation EC50, primary screening): 11 µM | Emax ([5]; HCT-116, read-out: p53 activation efficacy, cherry pick confirmation): 62.8% | Emax ([5]; HCT-116, read-out: p53 activation efficacy, primary screening): 36.2% | p53 activation EC50, cherry pick confirmation [6]: inactive | p53 activation EC50, primary screening [6]: inactive | p53 activation efficacy, cherry pick confirmation [6]: inactive | p53 activation efficacy, primary screening [6]: inactive

N=C(N)NC(=O)c1nc(Cl)c(N)nc1N [Amiloride hydrochloride]
EC50 [7, 9]: 38.7 µM | p53 activation EC50, RLM [8]: inactive | p53 activation Efficacy, RLM [8]: inactive | p53 activation EC50, No MS [2]: inactive | p53 activation Efficacy, No MS [2]: inactive | Viability EC50, HLM [4]: inactive | Viability EC50, No MS [4]: inactive | Viability EC50, RLM [4]: inactive | Viability Efficacy, HLM [4]: inactive | Viability Efficacy, No MS [4]: inactive | Viability Efficacy, RLM [4]: inactive | p53 activation EC50, HLM [6]: inactive

COP(=S)(OC)Oc1cc(Cl)c(Br)cc1Cl [Bromofos]
EC50 [1]: 16.2 µM | Emax ([1]; HCT-116, read-out: efficacy): 40.6% | p53 activation efficacy [8]: 62.741 | EC50 [8]: 15.1 µM | p53 activation EC50 [2]: inactive | p53 activation efficacy [2]: inactive | EC50 [3]: Inactive | Viability EC50 [4]: inactive | Viability efficacy [4]: inactive | EC50 ([5]; HCT-116): 17.8 µM | Emax ([5]; HCT-116, read-out: efficacy): 66.6% | p53 activation EC50 [6]: inactive

Nc1ccn([C@@H]2O[C@H](CO)[C@@H](O)[C@@H]2O)c(=O)n1 [Cytarabine hydrochloride]
EC50 [7, 10]: 3.49 µM | p53 activation EC50 [8]: inactive | p53 activation efficacy [8]: inactive | p53 activation efficacy [2]: 74.252 | Viability EC50 [4]: inactive | Viability efficacy [4]: inactive | p53 activation EC50 [6]: inactive

O=c1ccc2ccccc2o1 [Coumarin]
EC50 [7, 9]: 28.6 µM | p53 activation EC50, RLM [8]: inactive | p53 activation Efficacy, RLM [8]: inactive | p53 activation EC50, No MS [2]: inactive | p53 activation Efficacy, No MS [2]: inactive | Viability EC50, HLM [4]: inactive | Viability EC50, No MS [4]: inactive | Viability EC50, RLM [4]: inactive | Viability Efficacy, HLM [4]: inactive | Viability Efficacy, No MS [4]: inactive | Viability Efficacy, RLM [4]: inactive | p53 activation EC50, HLM [6]: inactive

Nc1ccc2c(O)cc(S(=O)(=O)O)cc2c1
Emax [7]: 27% | p53 activation efficacy [8]: 57.1256 and 31.0337 | EC50 [8]: 10.9 µM | p53 activation efficacy [2]: 61.5673 and 83.6027 | Viability EC50 [4]: inactive | Viability efficacy [4]: inactive | p53 activation EC50 [6]: inactive

Nc1ccc(-c2ccc(N)c(Cl)c2)cc1Cl [3,3'-Dichlorobenzidine]
Emax [7]: 33.9% | p53 activation EC50 [8]: inactive | p53 activation efficacy [8]: inactive | EC50 ([2]; read-out: p53 activation EC50): 16.4 µM | Viability EC50 [4]: inactive | Viability efficacy [4]: inactive | p53 activation EC50 [6]: inactive

C[C@]12CC[C@H]3[C@@H](CC[C@@]45O[C@@H]4C(O)=C(C#N)C[C@]35C)[C@@H]1CC[C@@H]2O [Trilostane]
EC50 [7, 10]: 41 µM | Emax [7]: 53.3% | p53 activation EC50 [8]: inactive | p53 activation efficacy [8]: inactive | p53 activation EC50 [2]: inactive | EC50 ([2]; Homo sapiens, HCT-116, read-out: p53 activation EC50): 44.1 µM | Emax ([2]; Homo sapiens, HCT-116, read-out: p53 activation efficacy): 98.3% | Viability EC50 [4]: inactive | Viability efficacy [4]: inactive | p53 activation EC50 [6]: inactive
